Laboratory results as given in US11760722B2 (priority 2022, dated 2023).
“And” between values parts separate entries of the source, which are not always exact repeats. Equal values may be shown once. Read-outs that look alike come from different tables or passages of the source.

Experiments:
[1] = tested on: SARS-CoV-2 replicon; experiment: microbe, parasite or virus in culture; format: cell-based
[2] = tested on: human coronavirus (HCoV) 229E; experiment: microbe, parasite or virus in culture; format: cell-based, human coronavirus 229E
Procedure: Test compounds were provided by the sponsor. Reference compound remdesivir was provided by WuXi AppTec. Compounds were assayed at 8 concentrations (to be defined by sponsor), in duplicate wells.
MRCS cells were obtained from the ATCC, and maintained in the Minimum Essential Medium supplemented with 10% FBS, 1% L-glutamine, 1% NEAA and 1% penicillin-streptomycin. Minimum Essential Medium supplemented with 5% FBS, 1% L-glutamine, 1% NEAA and 1% penicillin-streptomycin was used as the assay medium.
Cells were seeded in 96 well plates, in 100 μl per well of assay medium, and cultured at 37° C. and 5% CO2 overnight. Next day, test compound was diluted with assay medium and then added into the cells, 50 μl per well. Then 50 μl per well of assay medium diluted virus was added. The final volume of the cell culture was 200 μl per well. […] The CPE were measured by CellTiter Glo following the manufacturer's manual. The antiviral activity of compounds was calculated based on the protection of the virus-induced CPE at each concentration normalized by the virus control.
EC50 and CC50 values were calculated using the GraphPad Prism software using the nonlinear regression model of log(inhibitor) vs. response—Variable slope (four parameters).

[3] = Severe acute respiratory syndrome coronavirus 2, Huh-7, 24 h; read-out: Replicon EC50
[4] = MRCS cells, HCoV 229E, 3 days, CellTiter Glo, read-out: 229E CPE EC50
[5] = unidentified human coronavirus, 72 h, MRCS cells, HCoV 229E, 3 days, CellTiter Glo, read-out: 229E CPE EC50

SMILES	EC50 [1, 3]	EC50 ([1]; read-out: Replicon EC50)	EC50 [2, 4]	EC50 [2, 5]	EC50 ([1]; Severe acute respiratory syndrome coronavirus 2, Huh-7, 24 h, read-out: Replicon EC50)	EC50 ([2]; unidentified human coronavirus, 72 h, read-out: 229E CPE EC50, MRCS cells, HCoV 229E, 3 days, CellTiter Glo)
CC(C)(C)[C@H](NC(=O)CC12CC(C1)C2)C(=O)N1C[C@H]2[C@@H]([C@H]1C(=O)N[C@H](C#N)C[C@@H]1CCNC1=O)C2(C)C [Compound 40]	0.27 µM	0.32 µM and 0.36 µM and 0.39 µM	3.26 µM	3.12 µM	–	–
C/C(=C\C(=O)N[C@H](C(=O)N1C[C@H]2[C@@H]([C@H]1C(=O)N[C@H](C#N)C[C@@H]1CCNC1=O)C2(C)C)C(C)(C)C)C(F)(F)F [Compound 140]	0.35 µM	0.41 µM	–	0.619 µM	–	–
CC(C)(C)[C@H](NS(=O)(=O)c1cccc(F)c1)C(=O)N1C[C@H]2[C@@H]([C@H]1C(=O)N[C@H](C#N)C[C@@H]1CCNC1=O)C2(C)C [Compound 79]	0.081 µM	0.14 µM	0.266 µM	0.256 µM	–	–
CC(C)(C)[C@H](NC(=O)C12CC(F)(C1)C2)C(=O)N1C[C@H]2[C@@H]([C@H]1C(=O)N[C@H](C#N)C[C@@H]1CCNC1=O)C2(C)C [Compound 34]	0.27 µM	0.3 µM and 0.42 µM	–	0.534 µM	–	–
Cc1ccc(S(=O)(=O)N(C(=O)C(F)(F)F)[C@H](C(=O)N2C[C@H]3[C@@H]([C@H]2C(=O)N[C@H](C#N)C[C@@H]2CCNC2=O)C3(C)C)C(C)(C)C)cc1 [Compound 167]	0.02 µM	–	–	0.12 µM	–	–
CC(C)(C)[C@H](NS(=O)(=O)c1cc2ccccc2s1)C(=O)N1C[C@H]2[C@@H]([C@H]1C(=O)N[C@H](C#N)C[C@@H]1CCNC1=O)C2(C)C [Compound 111]	0.0034 µM	0.0046 µM	–	0.13 µM	–	–
CC(C)(C)[C@H](NS(=O)(=O)c1ccc2c(c1)CCO2)C(=O)N1C[C@H]2[C@@H]([C@H]1C(=O)N[C@H](C#N)C[C@@H]1CCNC1=O)C2(C)C [Compound 83]	0.044 µM	0.072 µM	1.06 µM	0.838 µM	–	–
CC(C)(C)OC(=O)N[C@H](C(=O)N1C[C@H]2[C@@H]([C@H]1C(=O)N[C@H](C#N)C[C@@H]1CCNC1=O)C2(C)C)C(C)(C)C [Compound 12]	–	0.119 µM	–	–	0.106 µM	0.849 µM
Cc1c(C)c(C)c(S(=O)(=O)N[C@H](C(=O)N2C[C@H]3[C@@H]([C@H]2C(=O)N[C@H](C#N)C[C@@H]2CCNC2=O)C3(C)C)C(C)(C)C)c(C)c1C [Compound 142]	0.16 µM	0.17 µM	–	0.283 µM	–	–
CC(C)[C@H]1CC[C@H](C)C[C@@H]1OCC(=O)N[C@H](C(=O)N1C[C@H]2[C@@H]([C@H]1C(=O)N[C@H](C#N)C[C@@H]1CCNC1=O)C2(C)C)C(C)(C)C [Compound 110]	1.36 µM	–	–	23.5 µM	–	–
CC(C)(C)[C@H](NC(=O)C(F)(Cl)C(F)(F)F)C(=O)N1C[C@H]2[C@@H]([C@H]1C(=O)N[C@H](C#N)C[C@@H]1CCNC1=O)C2(C)C (some centres unmarked) [Compound 75]	0.0069 µM	0.013 µM	0.118 µM	0.092 µM	–	–
C=CS(=O)(=O)N[C@H](C(=O)N1C[C@H]2[C@@H]([C@H]1C(=O)N[C@H](C#N)C[C@@H]1CCNC1=O)C2(C)C)C(C)(C)C [Compound 84]	0.29 µM	–	–	0.91 µM	–	–
CN(C)[C@@H]1C[C@@H](C(=O)N[C@H](C#N)C[C@@H]2CCNC2=O)N(C(=O)[C@@H](NC(=O)C(F)(F)F)C(C)(C)C)C1 [Compound 116]	0.74 µM	–	–	> 30 µM	–	–
CC(C)(C)[C@H](NC(=O)C=C(C(F)(F)F)C(F)(F)F)C(=O)N1C[C@H]2[C@@H]([C@H]1C(=O)N[C@H](C#N)C[C@@H]1CCNC1=O)C2(C)C [Compound 158]	> 10 µM	–	–	> 30 µM	–	–
CC(C)(C)[C@H](NS(=O)(=O)c1ccccc1)C(=O)N1C[C@H]2[C@@H]([C@H]1C(=O)N[C@H](C#N)C[C@@H]1CCNC1=O)C2(C)C [Compound 95]	0.037 µM	0.068 µM	0.521 µM	0.358 µM	–	–
CC(C)(C)[C@H](NS(=O)(=O)c1cc2c(s1)CCCC2)C(=O)N1C[C@H]2[C@@H]([C@H]1C(=O)N[C@H](C#N)C[C@@H]1CCNC1=O)C2(C)C [Compound 135]	0.024 µM	0.034 µM	0.067 µM	0.064 µM	–	–
CC(C)(C)[C@H](NC(=O)C1(C(F)(F)F)CC1)C(=O)N1C[C@H]2[C@@H]([C@H]1C(=O)N[C@H](C#N)C[C@@H]1CCNC1=O)C2(C)C [Compound 151]	0.085 µM	–	–	0.207 µM	–	–
CC(C)(C)[C@H](NC(=O)[C@H]1CCO1)C(=O)N1C[C@H]2[C@@H]([C@H]1C(=O)N[C@H](C#N)C[C@@H]1CCNC1=O)C2(C)C [Compound 22]	3 µM	–	–	19.3 µM	–	–
CC(C)(C)[C@H](NS(=O)(=O)c1ccc(F)c(F)c1)C(=O)N1C[C@H]2[C@@H]([C@H]1C(=O)N[C@H](C#N)C[C@@H]1CCNC1=O)C2(C)C [Compound 99]	0.088 µM	0.1 µM	0.344 µM	0.271 µM	–	–

SMILES	EC50 [1, 3]	EC50 ([1]; read-out: Replicon EC50)	EC50 [2, 4]	EC50 [2, 5]	EC50 ([1]; Severe acute respiratory syndrome coronavirus 2, Huh-7, 24 h, read-out: Replicon EC50)	EC50 ([2]; unidentified human coronavirus, 72 h, read-out: 229E CPE EC50, MRCS cells, HCoV 229E, 3 days, CellTiter Glo)
CC(C)(C)NC(=O)N[C@H](C(=O)N1C[C@H]2[C@@H]([C@H]1C(=O)N[C@H](C#N)C[C@@H]1CCNC1=O)C2(C)C)C(C)(C)C [Compound 87]	0.45 µM	0.8 µM	14 µM	9.07 µM	–	–
CC(C)(C)[C@H](NS(=O)(=O)c1ccc(C(F)(F)F)cc1)C(=O)N1C[C@H]2[C@@H]([C@H]1C(=O)N[C@H](C#N)C[C@@H]1CCNC1=O)C2(C)C [Compound 90]	–	0.067 µM and 0.076 µM	0.387 µM	0.254 µM	–	–
CC(C)(C)[C@H](NC(=S)NC1CC1)C(=O)N1C[C@H]2[C@@H]([C@H]1C(=O)N[C@H](C#N)C[C@@H]1CCNC1=O)C2(C)C [Compound 76]	0.38 µM	0.48 µM	7.55 µM	6.32 µM	–	–
CC(C)(C)[C@H](NC(=O)c1ccc2c(c1)CCC2)C(=O)N1C[C@H]2[C@@H]([C@H]1C(=O)N[C@H](C#N)C[C@@H]1CCNC1=O)C2(C)C [Compound 120]	2.24 µM	–	–	4.72 µM	–	–
CC(C)(C)[C@H](NC(=S)NC1CC(F)(F)C1)C(=O)N1C[C@H]2[C@@H]([C@H]1C(=O)N[C@H](C#N)C[C@@H]1CCNC1=O)C2(C)C [Compound 123]	0.79 µM	–	–	0.7 µM	–	–
CC(C)(C)[C@H](NC(=O)c1cccc2ccccc12)C(=O)N1C[C@H]2[C@@H]([C@H]1C(=O)N[C@H](C#N)C[C@@H]1CCNC1=O)C2(C)C [Compound 119]	0.34 µM	–	–	0.546 µM	–	–
CC(C)(C)[C@H](NS(=O)(=O)c1ccc(F)cc1)C(=O)N1C[C@H]2[C@@H]([C@H]1C(=O)N[C@H](C#N)C[C@@H]1CCNC1=O)C2(C)C [Compound 53, (1R,2S,5S)—N—((S)-1-cyano-2-((S)-2-oxopyrrolidin-3-yl)ethyl)-3-((S)-2-((4-fluorophenyl)sulfonamido)-3,3-dimethylbutanoyl)-6,6-dimethyl-3-azabicyclo[3.1.0]hexane-2-carboxamide]	0.051 µM	0.1 µM	0.364 µM	0.265 µM	–	–
CC(C)(C)[C@H](NC(=O)/C(F)=C(\F)C(F)(C(F)(F)F)C(F)(F)F)C(=O)N1C[C@H]2[C@@H]([C@H]1C(=O)N[C@H](C#N)C[C@@H]1CCNC1=O)C2(C)C [Compound 163]	> 10 µM	–	–	4.63 µM	–	–
Cn1c(C(=O)N[C@H](C(=O)N2C[C@H]3[C@@H]([C@H]2C(=O)N[C@H](C#N)C[C@@H]2CCNC2=O)C3(C)C)C(C)(C)C)cc2ccccc21 [Compound 27]	0.964 µM	–	–	0.963 µM	–	–
Cc1cc(S(=O)(=O)N[C@H](C(=O)N2C[C@H]3[C@@H]([C@H]2C(=O)N[C@H](C#N)C[C@@H]2CCNC2=O)C3(C)C)C(C)(C)C)sc1Cl [Compound 168]	0.041 µM	–	–	0.116 µM	–	–
CNC(=S)N[C@@H](CC1CCC1)C(=O)N1C[C@H]2[C@@H]([C@H]1C(=O)N[C@H](C#N)C[C@@H]1CCNC1=O)C2(C)C [Compound 78]	1.86 µM	–	–	12.6 µM	–	–
CN(C)S(=O)(=O)N[C@H](C(=O)N1C[C@H]2[C@@H]([C@H]1C(=O)N[C@H](C#N)C[C@@H]1CCNC1=O)C2(C)C)C(C)(C)C [Compound 47, (1R,2S,5S)—N—((S)-1-cyano-2-((S)-2-oxopyrrolidin-3-yl)ethyl)-3-((S)-2-((N,N-dimethylsulfamoyl)amino)-3,3-dimethylbutanoyl)-6,6-dimethyl-3-azabicyclo[3.1.0]hexane-2-carboxamide]	–	–	7.32 µM	6.19 µM	–	–
CCNC(=S)N[C@H](C(=O)N1C[C@H]2[C@@H]([C@H]1C(=O)N[C@H](C#N)C[C@@H]1CCNC1=O)C2(C)C)C(C)(C)C [Compound 72]	–	–	0.89 µM	0.718 µM	–	–
CC(C)(C)[C@H](NC(=O)CC#N)C(=O)N1C[C@H]2[C@@H]([C@H]1C(=O)N[C@H](C#N)C[C@@H]1CCNC1=O)C2(C)C [Compound 33]	–	–	18 µM	17.8 µM	–	–
CC(C)(C)[C@H](NS(=O)(=O)c1sccc1Cl)C(=O)N1C[C@H]2[C@@H]([C@H]1C(=O)N[C@H](C#N)C[C@@H]1CCNC1=O)C2(C)C [Compound 114]	–	–	0.133 µM	0.067 µM	–	–
COc1ccsc1S(=O)(=O)N[C@H](C(=O)N1C[C@H]2[C@@H]([C@H]1C(=O)N[C@H](C#N)C[C@@H]1CCNC1=O)C2(C)C)C(C)(C)C [Compound 127]	–	–	–	0.711 µM	–	–
COc1ccc(S(=O)(=O)N(C)[C@H](C(=O)N2C[C@H]3[C@@H]([C@H]2C(=O)N[C@H](C#N)C[C@@H]2CCNC2=O)C3(C)C)C(C)(C)C)cc1 [Compound 137]	–	–	–	4.84 µM	–	–
CC(C)(C)[C@H](NC(=O)C(F)(F)C(F)(F)C(F)(F)F)C(=O)N1C[C@H]2[C@@H]([C@H]1C(=O)N[C@H](C#N)C[C@@H]1CCNC1=O)C2(C)C [Compound 133]	–	–	0.16 µM and 0.164 µM	0.122 µM	–	–
